Results from PMC4613257, “Ile-1781-Leu and Asp-2078-Gly Mutations in ACCase Gene, Endow Cross-resistance to APP, CHD, and PPZ in Phalaris minor from Mexico” (International Journal of Molecular Sciences, 2015).
Read-outs that look alike come from different tables or passages of the source.

Molecular target: ACCase
Settings: read-out: I50, R biotype, both substitutions found, zygosity not given, stated gain, pH 8.3, 34 °C, 1.5 mM ATP, 5 mM MgCl2, 15 mM NaH14CO3, 5 mM acetyl-CoA
Source text: ATP-dependent NaH14CO3 incorporation into acid-stable product on ACCase

| SMILES | IC50 [µM] | further results |
| --- | --- | --- |
| CC(Oc1ccc(Oc2nc3ccc(Cl)cc3o2)cc1)C(=O)O (stereo not drawn) [Fenoxaprop acid] |  | IC50 (table prints the ethyl ester, methods state the acid): 7.85 µM |
| C[C@@H](Oc1ccc(Oc2ccc(C#N)cc2F)cc1)C(=O)O [cyhalofop acid] |  | IC50 (table prints the butyl ester, methods list the acid): 77.7 µM |
| CC(Oc1ccc(Oc2ccc(Cl)cc2Cl)cc1)C(=O)O (stereo not drawn) [diclofop acid] |  | IC50 (table prints the methyl ester, methods list the acid): 7.14 µM |
| CCc1cc(C)cc(CC)c1-c1c(OC(=O)C(C)(C)C)n2n(c1=O)CCOCC2 [pinoxaden] | 9.13 |  |
| CCCC(=NOCC)C1=C(O)CC(CC(C)SCC)CC1=O (stereo not drawn) [sethoxydim] | 1500 |  |
| CCON=C(CC)C1=C(O)CC(c2c(C)cc(C)cc2C)CC1=O (stereo not drawn) [tralkoxydim] | 8.81 |  |
